Assay results published in ChEMBL document CHEMBL1201862, “PubChem BioAssay data set” (2004).
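1) Cells in 96-well plates. 2) Compound, 48 h, 5 concentrations. 3) Linear interpolation between surrounding doses. 4) Unreached endpoint = highest concentration. GI50 is the concentration that inhibits growth by half.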 The source made the active and inactive calls. Cut-off read from the data, not from the text of the source: active = GI50 up to about 1.1 µM and inactive = higher.

Key:
Assay in all cases: NCI anticancer screen, dose series, 48 h
SNB-75 = system: SNB-75
ACHN = system: ACHN
A498 = system: A498
MDA-MB-435 = system: MDA-MB-435
K562 = system: K562
COLO 205 = system: COLO 205
OVCAR-5 = system: OVCAR-5
SN12C = system: SN12C
HCT-15 = system: HCT-15
CAKI-1 = system: CAKI-1
UACC-257 = system: UACC-257
OVCAR-3 = system: OVCAR-3
OVCAR-4 = system: OVCAR-4
SF-539 = system: SF-539
MDA-N = system: MDA-N
NCI-H23 = system: NCI-H23
UO-31 = system: UO-31
NCI/ADR-RES = system: NCI/ADR-RES
HCC 2998 = system: HCC 2998

SMILES | GI50 (SNB-75) | GI50 (ACHN) | GI50 (A498) | GI50 (MDA-MB-435) | GI50 (K562) | GI50 (COLO 205) | GI50 (OVCAR-5) | GI50 (SN12C) | GI50 (HCT-15) [µM] | GI50 (CAKI-1) | GI50 (UACC-257) | GI50 (OVCAR-3) | GI50 (OVCAR-4) | GI50 (SF-539) | GI50 (MDA-N) | GI50 (NCI-H23) | GI50 (UO-31) | GI50 (NCI/ADR-RES) | GI50 (HCC 2998)
CCOC(=O)CCC1(C(=O)O[C@@H]2C[C@H](C)CC[C@H]2C(C)C)CCCCC1=O (stereo partly drawn) | 42 µM (inactive) | 74.8 µM (inactive) | > 100 µM (inactive) | 74.1 µM (inactive) | 28.1 µM (inactive) | 65 µM (inactive) | > 100 µM (inactive) | > 100 µM (inactive) | 41.7 | 40.7 µM (inactive) | 23.3 µM (inactive) | 45.8 µM (inactive) | 61.2 µM (inactive) | > 100 µM (inactive) | 79.4 µM (inactive) | 74.8 µM (inactive) | > 100 µM (inactive) | 55.2 µM (inactive) | 
S=c1[nH]c2c(Cl)c(Cl)c(Cl)c(Cl)c2[nH]1 |  | 15.8 µM (inactive) | 22.2 µM (inactive) | 17.5 µM (inactive) | 7.23 µM (inactive) | 17.2 µM (inactive) | 25.8 µM (inactive) | 20.6 µM (inactive) | 22 | 25.7 µM (inactive) | 19.4 µM (inactive) | 26.7 µM (inactive) | 5.94 µM (inactive) | 12.1 µM (inactive) | 17.3 µM (inactive) | 29.2 µM (inactive) | 16 µM (inactive) | 18.5 µM (inactive) | 0.955 µM (active)
COC(=O)c1cc(NC(=O)Cc2c[nH]c3ccccc23)cn1C |  | 72.4 µM (inactive) | > 100 µM (inactive) | 55.8 µM (inactive) | 58.1 µM (inactive) | 82 µM (inactive) | > 100 µM (inactive) | 42.9 µM (inactive) | 62.5 | > 100 µM (inactive) | > 100 µM (inactive) | > 100 µM (inactive) | 40.4 µM (inactive) | > 100 µM (inactive) | > 100 µM (inactive) | > 100 µM (inactive) | 23.6 µM (inactive) | > 100 µM (inactive) | 68.1 µM (inactive)
[N-]=[N+]=Nc1cc(=O)[nH]nc1-c1ccccc1 | 61.4 µM (inactive) | > 100 µM (inactive) | > 100 µM (inactive) | > 100 µM (inactive) | > 100 µM (inactive) | > 100 µM (inactive) |  | > 100 µM (inactive) | > 100 |  | > 100 µM (inactive) | > 100 µM (inactive) | > 100 µM (inactive) | > 100 µM (inactive) | > 100 µM (inactive) | > 100 µM (inactive) | > 100 µM (inactive) | > 100 µM (inactive) | > 100 µM (inactive)
Cc1nnc([C@@]2(C)CC[C@H]3[C@@H](CCC4=CC(=O)CC[C@@]43C)[C@@H]2CC#N)o1 | 41 µM (inactive) | > 100 µM (inactive) | > 100 µM (inactive) | > 100 µM (inactive) | > 100 µM (inactive) | > 100 µM (inactive) | > 100 µM (inactive) | > 100 µM (inactive) | > 100 | > 100 µM (inactive) | > 100 µM (inactive) | > 100 µM (inactive) | > 100 µM (inactive) | > 100 µM (inactive) | > 100 µM (inactive) | > 100 µM (inactive) | > 100 µM (inactive) | > 100 µM (inactive) | 
C=C(C)C1CCC2(C)C1CCC1(C)C2CCC2C3(C)C4OC(OC4=O)C(C)(C)C3CCC21C (stereo not drawn) | > 100 µM (inactive) | > 100 µM (inactive) | > 100 µM (inactive) | > 100 µM (inactive) | 33 µM (inactive) | 48.3 µM (inactive) | > 100 µM (inactive) | > 100 µM (inactive) | > 100 | 92 µM (inactive) | > 100 µM (inactive) | > 100 µM (inactive) |  | > 100 µM (inactive) | > 100 µM (inactive) | > 100 µM (inactive) | > 100 µM (inactive) | > 100 µM (inactive) | > 100 µM (inactive)
N=C/N=C/C(=S)O[C@@H]1C(=O)N2CCC[C@@]23CCCC[C@@H]13 | > 12.5 µM (inactive) | > 12.5 µM (inactive) | > 12.5 µM (inactive) | > 12.5 µM (inactive) | > 12.5 µM (inactive) | > 12.5 µM (inactive) | > 12.5 µM (inactive) | > 12.5 µM (inactive) | > 12.5 | > 12.5 µM (inactive) | > 12.5 µM (inactive) |  | > 12.5 µM (inactive) |  | > 12.5 µM (inactive) | > 12.5 µM (inactive) | > 12.5 µM (inactive) | > 12.5 µM (inactive) | > 12.5 µM (inactive)
COc1ccc(C2SCC(=O)N2c2ccc(-c3ccc(-n4c(-c5ccccc5)nc5ccccc5c4=O)cc3)cc2)cc1 (stereo not drawn) |  | 70 µM (inactive) | > 100 µM (inactive) | 49.7 µM (inactive) | 30.4 µM (inactive) | 39 µM (inactive) | 28.5 µM (inactive) | > 100 µM (inactive) | 44.5 | 95.3 µM (inactive) | > 100 µM (inactive) | 17.5 µM (inactive) | 42.4 µM (inactive) | 74.8 µM (inactive) | 65.9 µM (inactive) | 68.9 µM (inactive) | > 100 µM (inactive) | 96.2 µM (inactive) | 30.1 µM (inactive)
COC(=O)[C@@H]1N2C(=S)N(c3ccccc3)C(=O)[C@H]2SC1(C)C | > 100 µM (inactive) | > 100 µM (inactive) | 91.4 µM (inactive) | > 100 µM (inactive) |  | > 100 µM (inactive) | > 100 µM (inactive) | > 100 µM (inactive) | > 100 | > 100 µM (inactive) | > 100 µM (inactive) | > 100 µM (inactive) | > 100 µM (inactive) | > 100 µM (inactive) | > 100 µM (inactive) | > 100 µM (inactive) | > 100 µM (inactive) | > 100 µM (inactive) | > 100 µM (inactive)
N#CCCN(CCN(CCN(C(=O)Nc1ccccc1)c1ccccc1)C(=O)Nc1ccccc1)C(=O)Nc1ccccc1 | 67.6 µM (inactive) | 40.1 µM (inactive) | > 100 µM (inactive) | 20.7 µM (inactive) |  | > 100 µM (inactive) | > 100 µM (inactive) | > 100 µM (inactive) | > 100 | > 100 µM (inactive) | > 100 µM (inactive) | > 100 µM (inactive) | > 100 µM (inactive) | > 100 µM (inactive) | > 100 µM (inactive) | > 100 µM (inactive) | > 100 µM (inactive) | > 100 µM (inactive) | 28.2 µM (inactive)
CC12CC1C(c1cccc([N+](=O)[O-])c1)(c1cccc([N+](=O)[O-])c1)N=N2 (stereo not drawn) | 24.6 µM (inactive) | 15.8 µM (inactive) | 4.28 µM (inactive) | 36.5 µM (inactive) | 29.9 µM (inactive) | 21.6 µM (inactive) | 53.3 µM (inactive) | 25.6 µM (inactive) | 20.4 |  | 28.1 µM (inactive) | 27.4 µM (inactive) | 23.1 µM (inactive) | 25.5 µM (inactive) | 23.2 µM (inactive) | 19.1 µM (inactive) | 10.8 µM (inactive) | 22.9 µM (inactive) | 34.5 µM (inactive)
O=C(O)CCC(C(=O)O)N1C(=O)c2ccccc2C1=O (stereo not drawn) | > 100 µM (inactive) | > 100 µM (inactive) | > 100 µM (inactive) | > 100 µM (inactive) | > 100 µM (inactive) | > 100 µM (inactive) | > 100 µM (inactive) | > 100 µM (inactive) | > 100 | > 100 µM (inactive) | > 100 µM (inactive) | > 100 µM (inactive) | > 100 µM (inactive) |  | > 100 µM (inactive) | > 100 µM (inactive) | > 100 µM (inactive) | > 100 µM (inactive) | > 100 µM (inactive)
CO[C@@H]1C[C@H](OC(N)=O)[C@@H]2C=C[C@@H]3/C=C(C)/C=C/[C@@H](C)[C@H]([C@H](C)[C@H](O)[C@@H](C)NC(C)=O)OC(=O)/C=C/C=C(C)\C=C\[C@]3(C)[C@@H]2C1 | < 0.01 µM (active) | < 0.01 µM (active) | < 0.01 µM (active) | < 0.01 µM (active) | 0.0101 µM (active) | < 0.01 µM (active) | 1.42 µM (inactive) |  | < 0.01 | < 0.01 µM (active) | 0.0354 µM (active) | < 0.0436 µM (active) | < 0.01 µM (active) | < 0.01 µM (active) | < 0.01 µM (active) | 0.522 µM (active) | < 0.01 µM (active) | < 0.01 µM (active) | < 0.01 µM (active)
Cc1ccc(C2=C(Cl)C(=O)C(c3ccc(C)cc3)=C(Cl)C2=O)cc1 | > 100 µM (inactive) | > 100 µM (inactive) | > 100 µM (inactive) | > 100 µM (inactive) | > 100 µM (inactive) | > 100 µM (inactive) | > 100 µM (inactive) | > 100 µM (inactive) | > 100 | > 100 µM (inactive) | > 100 µM (inactive) | > 100 µM (inactive) | > 100 µM (inactive) | > 100 µM (inactive) | > 100 µM (inactive) | > 100 µM (inactive) | > 100 µM (inactive) | > 100 µM (inactive) | 
COC(=O)CCC(C)[C@H]1CCC2C3C(C[C@H](OC(C)=O)[C@@]21C)[C@@]1(C)CCC2(C[C@H]1C[C@H]3OC(C)=O)OOC1(CCCCCCC1)OO2 (stereo partly drawn) | 6.35 µM (inactive) | 4.09 µM (inactive) | > 100 µM (inactive) | 18.4 µM (inactive) | 4.67 µM (inactive) | 7.62 µM (inactive) | > 100 µM (inactive) | 23.3 µM (inactive) | 5.52 | 2.55 µM (inactive) | 5.35 µM (inactive) | 2.73 µM (inactive) | 39 µM (inactive) | 18.6 µM (inactive) | > 100 µM (inactive) | 6.55 µM (inactive) | 7.26 µM (inactive) | > 100 µM (inactive) | 
